Test results reported in paper PMC6002460, “Pharmacological evaluation of new constituents of “Spice”: synthetic cannabinoids based on indole, indazole, benzimidazole and carbazole scaffolds” (Forensic Toxicology, 2018).
Where two headings read alike, the source gives them in different places.

Key:
human CB1 receptor [1] = target: T1, human CB1 receptor (Homo sapiens, UniProt P21554); design: method as in PMID 27429655; conditions: previous study; cited from earlier work
T1 construct: expressed in transfected cells; host or cells: CHO cells (membrane preparations)

human CB1 receptor [2] = target: T1, human CB1 receptor; experiment: biochemical; format: binding; conditions: [3H]CP55,940 0.1 nM, CHO cell membranes; read-out: Ki ± SEM Human CB1
human CB2 receptor [3] = target: T2, human CB2 receptor (Homo sapiens, UniProt P34972); experiment: biochemical; format: binding; conditions: [3H]CP55,940 0.1 nM, CHO cell membranes; read-out: Ki ± SEM Human CB2
T2 construct: expressed in transfected cells; host or cells: CHO cells (membrane preparations)

CB1 receptor [4] = conditions: cited from earlier work
CB2 receptor [5] = conditions: cited from earlier work
human CB1 receptor [6] = target: T1, human CB1 receptor; experiment: cAMP accumulation assay, CHO cells stably expressing CB1; format: cell-based
Protocol: (§1) cAMP accumulation assays were performed also as previously described. Briefly, CHO cells stably expressing the respective human CB receptor subtype CB1 or CB2 were seeded overnight. […] After incubation for 15 min the buffer was removed, and the cells were lyzed. The amount of cAMP was determined in a radioligand binding assay by incubating 50 µL of the cell lysate with 3 nM [^3H]cAMP in the presence of protein preparations from bovine adrenal glands (cAMP binding protein). Bound and unbound radioligand were separated by rapid filtration through GF/B filters, and radioactivity was determined by liquid scintillation counting. To test for antagonistic activity, test compounds were added to Hank’s buffered salt solution (HBSS) containing 10% dimethyl sulfoxide (DMSO), 10 min after the application of Ro-20-1724, and the mixture was incubated for 20 min at 37 °C.
(§2) As a next step, we investigated the compounds in cAMP accumulation assays, to obtain information on their functionality (Fig. 3). CB receptors are Gi protein-coupled and thus reduce the levels of cAMP in the cells upon activation.

human CB2 receptor [7] = target: T2, human CB2 receptor; experiment: cAMP accumulation assay, CHO cells stably expressing CB2; format: cell-based
Protocol: as §1, §2

human GPR55 = target: T3, human GPR55 (Homo sapiens, UniProt Q9Y2T6); experiment: β-Arrestin PathHunter assay, recombinant CHO cells expressing GPR55; format: cell-based; conditions: for Human GPR55 % inhibition: antagonist mode versus LPI 1 µM; for Human GPR55 % inhibition / Human GPR55 % activation: value in parentheses; for Human GPR55 % activation: agonist mode
T3 construct: host or cells: CHO cells
Protocol: (§3) β-Arrestin assays were performed in recombinant CHO cells expressing either the human GPR18 or the human GPR55 as described before using the β-galactosidase enzyme fragment complementation technology (β-arrestin PathHunter™ assay; DiscoverX, Fremont, CA, USA).
(§4) The orphan receptors GPR18 and GPR55 can interact with certain natural and synthetic cannabinoids. […] Therefore, we investigated the new series of indole, indazole, benzimidazole and carbazole-derived structures in β-arrestin assays at GPR18 and GPR55 (Table 2). […] For the lipophilic substitutions, the following rank order of potency was observed: ethyl > methyl > chloro > fluoro. Therefore, it can be concluded that a lipophilic substitution in position 4 of the naphthyl residue was a requirement for GPR55 inhibition.

human GPR18 = target: T4, human GPR18 (Homo sapiens, UniProt Q14330); experiment: β-Arrestin PathHunter assay, recombinant CHO cells expressing GPR18; format: cell-based; conditions: for Human GPR18 % activation: agonist mode; for Human GPR18 % activation / Human GPR18 % inhibition: value in parentheses; for Human GPR18 % inhibition: antagonist mode
T4 construct: host or cells: CHO cells
T4 sequence (Q14330 1-331): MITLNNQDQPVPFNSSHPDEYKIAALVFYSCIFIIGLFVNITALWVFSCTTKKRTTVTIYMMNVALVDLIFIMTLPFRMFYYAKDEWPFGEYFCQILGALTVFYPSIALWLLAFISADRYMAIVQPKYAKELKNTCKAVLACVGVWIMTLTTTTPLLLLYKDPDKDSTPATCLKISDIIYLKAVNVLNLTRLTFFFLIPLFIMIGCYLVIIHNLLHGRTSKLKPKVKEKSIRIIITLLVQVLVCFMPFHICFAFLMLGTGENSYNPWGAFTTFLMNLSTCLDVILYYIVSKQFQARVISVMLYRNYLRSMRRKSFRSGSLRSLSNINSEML
Protocol: as §3, §4

CB1 receptor [8] = conditions: membrane potential assay, cited from earlier work
CB2 receptor [9] = conditions: membrane potential assay, cited from earlier work
rats = test system: rats; design: method as in PMID 27421060; conditions: cited from earlier work
CB1 receptor [10] = target: CB1 receptor; design: method as in Buchler et al. [37]; conditions: versus 0.5 nM [3H]CP55,940; ref Buchler et al. [37]; cited from earlier work
CB1 receptor [11] = target: CB1 receptor; design: method as in Wiley et al. [41]; conditions: versus 0.62 nM [3H]CP55,940; ref Wiley et al. [41]; cited from earlier work
CB2 receptor [12] = target: CB2 receptor; design: method as in Wiley et al. [41]; conditions: versus 0.62 nM [3H]CP55,940; ref Wiley et al. [41]; cited from earlier work
CB2 receptor [13] = target: CB2 receptor; design: method as in Bowden et al. [43]; conditions: HTRF cAMP accumulation; ref Bowden et al. [43]; cited from earlier work
CB1 receptor [14] = target: CB1 receptor; design: method as in Bowden et al. [43]; conditions: HTRF cAMP accumulation; ref Bowden et al. [43]; cited from earlier work
[15] = compound at 10 µM, normalized to CP55,940 (1 µM)

T2 sequence (P34972 whole entry): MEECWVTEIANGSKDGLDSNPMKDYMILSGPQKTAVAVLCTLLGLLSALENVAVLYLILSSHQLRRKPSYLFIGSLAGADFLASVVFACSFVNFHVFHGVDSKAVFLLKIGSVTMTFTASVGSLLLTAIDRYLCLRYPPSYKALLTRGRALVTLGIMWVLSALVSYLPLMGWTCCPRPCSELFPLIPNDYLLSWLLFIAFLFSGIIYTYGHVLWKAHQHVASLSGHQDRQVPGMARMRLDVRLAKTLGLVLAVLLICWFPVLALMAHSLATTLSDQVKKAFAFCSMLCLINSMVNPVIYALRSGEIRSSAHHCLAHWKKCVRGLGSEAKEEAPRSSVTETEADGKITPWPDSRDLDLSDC
T1 sequence (P21554 whole entry): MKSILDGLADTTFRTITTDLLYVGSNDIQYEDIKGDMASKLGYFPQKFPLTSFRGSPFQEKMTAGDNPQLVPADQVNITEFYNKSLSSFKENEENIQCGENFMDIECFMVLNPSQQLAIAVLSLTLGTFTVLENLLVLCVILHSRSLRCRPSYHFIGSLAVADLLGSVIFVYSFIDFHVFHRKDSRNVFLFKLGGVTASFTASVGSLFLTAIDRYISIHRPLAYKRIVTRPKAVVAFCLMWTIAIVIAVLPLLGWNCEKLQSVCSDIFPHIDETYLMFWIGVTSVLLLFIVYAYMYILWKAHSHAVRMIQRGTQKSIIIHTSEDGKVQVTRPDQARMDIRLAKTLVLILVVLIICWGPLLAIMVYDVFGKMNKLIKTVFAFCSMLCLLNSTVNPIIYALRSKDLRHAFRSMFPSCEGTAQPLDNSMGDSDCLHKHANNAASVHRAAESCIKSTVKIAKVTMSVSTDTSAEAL
T3 sequence (Q9Y2T6 whole entry): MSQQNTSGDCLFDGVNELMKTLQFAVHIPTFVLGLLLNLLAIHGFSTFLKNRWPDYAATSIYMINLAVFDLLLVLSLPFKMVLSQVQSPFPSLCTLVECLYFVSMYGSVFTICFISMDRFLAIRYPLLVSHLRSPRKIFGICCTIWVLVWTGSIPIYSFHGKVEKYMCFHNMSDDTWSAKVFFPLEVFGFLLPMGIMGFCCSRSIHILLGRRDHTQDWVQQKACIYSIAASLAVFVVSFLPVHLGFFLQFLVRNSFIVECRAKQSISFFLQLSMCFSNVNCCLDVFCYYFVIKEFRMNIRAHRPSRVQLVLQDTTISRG

## O=C(Oc1cccc2cccnc12)c1cn(CC2CCCCC2)c2ccccc12 [BB-22]
Human CB1 receptor [1]
  Ki: 0.217 nM

## CCCCCn1cc(C(=O)c2cccc3ccccc23)c2ccccc21 [compound 3, JWH-018, reference compound]
Human CB1 receptor [2]
  Ki: 1.51 ± 0.67 nM
Human CB2 receptor [3]
  Ki: 2.24 ± 1.2 nM
CB1 receptor [4]
  Ki: 9 nM
CB2 receptor [5]
  Ki: 2.9 nM

## COC(=O)[C@@H](NC(=O)c1nn(Cc2ccc(F)cc2)c2ccccc12)C(C)(C)C [compound 12, MDMB-FUBINACA]
Human CB1 receptor [2]
  Ki: 0.0985 ± 0.0291 nM
Human CB2 receptor [3]
  Ki: 0.13 ± 0.01 nM
Human CB1 receptor [6]
  EC50: 0.0641 nM
Human CB2 receptor [7]
  EC50: 0.756 nM
Human GPR55
  EC50: > 10000 nM
  IC50: > 10000 nM
  Human GPR55 % inhibition: 30%
Human GPR18
  EC50: > 10000 nM
  IC50: > 10000 nM
  Human GPR18 % activation: 18%
  Human GPR18 % inhibition: 31%
CB1 receptor [8]; ref Banister et al. [38]
  EC50: 3.9 nM
CB2 receptor [9]; ref Banister et al. [38]
  EC50: 55 nM
rats
  hypothermal response: highest hypothermal response

## CC(C)[C@H](NC(=O)c1nn(Cc2cccc(F)c2)c2ccccc12)C(N)=O [compound 18, AB-FUBINACA (3-F-benzyl-isomer)]
Human CB1 receptor [2]
  Ki: 12.6 ± 0.7 nM
Human CB2 receptor [3]
  Ki: 52.2 ± 10.2 nM
Human GPR55
  EC50: > 10000 nM
  IC50: > 10000 nM
  Human GPR55 % activation: 11%
Human GPR18
  EC50: > 10000 nM
  IC50: > 10000 nM
  Human GPR18 % activation: > 10 (10%)
CB1 receptor [10]
  Ki: 51.1 nM

## CC(C)[C@H](NC(=O)c1nn(Cc2ccccc2F)c2ccccc12)C(N)=O [compound 19, AB-FUBINACA (2-F-benzyl-isomer)]
Human CB1 receptor [2]
  Ki: 6.91 ± 3.42 nM
Human CB2 receptor [3]
  Ki: 25 ± 6.1 nM
Human GPR55
  EC50: > 10000 nM
  IC50: > 10000 nM
  Human GPR55 % activation: 15%
Human GPR18
  EC50: > 10000 nM
  IC50: > 10000 nM
  Human GPR18 % activation: 11%
CB1 receptor [10]
  Ki: 4.69 nM

## CC(C)[C@H](NC(=O)c1nn(CC2CCCCC2)c2ccccc12)C(N)=O [compound 20]
Human CB1 receptor [2]
  Ki: 1.72 ± 0.14 nM
Human CB2 receptor [3]
  Ki: 1.91 ± 0.2 nM
Human GPR55
  EC50: > 10000 nM
  IC50: > 10000 nM
  Human GPR55 % activation: 8%
Human GPR18
  EC50: > 10000 nM
  IC50: > 10000 nM
  Human GPR18 % activation: 13%
  Human GPR18 % inhibition: 11%
CB1 receptor [11]
  Ki: 0.78 nM
CB2 receptor [12]
  Ki: 0.45 nM

## NC(=O)[C@H](Cc1ccccc1)NC(=O)c1nn(Cc2ccc(F)cc2)c2ccccc12 [compound 29, APP-FUBINACA]
Human CB1 receptor [2]
  Ki: 56.3 ± 19.8 nM
Human CB2 receptor [3]
  Ki: 58.1 ± 17.3 nM
Human CB1 receptor [6]; [15]
  CB1 receptor activation in cAMP accumulation assay (in words): partial activation
Human CB2 receptor [7]; [15]
  CB2 receptor activation in cAMP accumulation assay (in words): full agonists
Human GPR55
  EC50: > 10000 nM
  IC50: > 10000 nM
  Human GPR55 % activation: 26%
Human GPR18
  EC50: > 10000 nM
  IC50: > 10000 nM
  Human GPR18 % activation: 4%
  Human GPR18 % inhibition: 21%
CB1 receptor [10]
  Ki: 47.6 nM

## NC(=O)[C@H](Cc1ccccc1)NC(=O)c1nn(CC2CCCCC2)c2ccccc12 [compound 30]
Human CB1 receptor [2]
  Ki: 9.81 ± 4.56 nM
Human CB2 receptor [3]
  Ki: 4.39 ± 0.59 nM
Human GPR55
  EC50: > 10000 nM
  IC50: > 10000 nM
  Human GPR55 % activation: 11%
  Human GPR55 % inhibition: 9%
Human GPR18
  EC50: > 10000 nM
  IC50: ~10000 nM
  Human GPR18 % activation: 5%
  Human GPR18 % inhibition: 57%
CB1 receptor [10]
  Ki: 47.5 nM

## CCCCCn1cc(C(=O)NC(C)(C)c2ccccc2)c2ccccc21 [compound 31, Cumyl-PICA]
Human CB1 receptor [2]
  Ki: 3.27 ± 0.32 nM
Human CB2 receptor [3]
  Ki: 24 ± 8.8 nM
Human GPR55
  EC50: > 10000 nM
  IC50: > 10000 nM
  Human GPR55 % activation: 11%
  Human GPR55 % inhibition: 3%
Human GPR18
  EC50: > 10000 nM
  IC50: > 10000 nM
  Human GPR18 % activation: 19%
CB1 receptor [8]; ref Longworth et al. [51]
  EC50: 4.2 nM
CB2 receptor [9]; ref Longworth et al. [51]
  EC50: 58.2 nM
CB2 receptor [13]
  EC50: 13 nM

## CC(C)(NC(=O)c1cn(CCCCCF)c2ccccc12)c1ccccc1 [compound 32, 5F-Cumyl-PICA]
Human CB1 receptor [2]
  Ki: 1.37 ± 0.26 nM
Human CB2 receptor [3]
  Ki: 29.1 ± 2.4 nM
Human GPR55
  EC50: > 10000 nM
  IC50: > 10000 nM
  Human GPR55 % activation: 14%
Human GPR18
  EC50: > 10000 nM
  IC50: > 10000 nM
  Human GPR18 % activation: 16%
CB1 receptor [8]; ref Longworth et al. [51]
  EC50: 2.8 nM
CB2 receptor [9]; ref Longworth et al. [51]
  EC50: 39.6 nM
CB1 receptor [14]
  EC50: < 0.1 nM
CB2 receptor [13]
  EC50: 0.37 nM

## CC(C)(NC(=O)c1nn(CC2CCOCC2)c2ccccc12)c1ccccc1 [compound 33]
Human CB1 receptor [2]
  Ki: 1.23 ± 0.2 nM
Human CB2 receptor [3]
  Ki: 1.38 ± 0.86 nM
Human GPR55
  EC50: > 10000 nM
  IC50: > 10000 nM
  Human GPR55 % activation: 11%
  Human GPR55 % inhibition: 7%
Human GPR18
  EC50: > 10000 nM
  IC50: > 10000 nM
  Human GPR18 % activation: 11%
  Human GPR18 % inhibition: 9%
CB1 receptor [14]
  EC50: 0.1 nM
CB2 receptor [13]
  EC50: 0.59 nM

## COc1ccc(C(=O)c2c(C)n(CCN3CCOCC3)c3cc(I)ccc23)cc1 [compound 43, AM-630]
CB1 receptor [4]
  function at CB1 (in words): partial agonist
CB2 receptor [5]
  Ki: 31.2 ± 12.4 nM
  function at CB2 (in words): antagonist

## Cc1ccc(Cn2nc(C(=O)N[C@@H]3C(C)(C)[C@@H]4CC[C@@]3(C)C4)cc2-c2ccc(Cl)c(C)c2)cc1 [compound 44, SR-144,528]
CB1 receptor [4]
  Ki: 437 ± 33 nM
CB2 receptor [5]
  function at CB2 (in words): antagonist
